Assay results from publication PMC11891579, “Fluorescent PyrAte-(S)-citalopram conjugates enable imaging of the serotonin transporter in living tissue” (Chemical Science, 2025).

Key:
hNET = molecular target: T1, hNET (Homo sapiens, UniProt P23975); experiment: radioligand uptake inhibition assay ([3H]MPP+); type: cell-based; conditions: for IC50: HEK293 stably expressing hNET, 20 nM [3H]MPP+, mean and SD, N = 3-6, read-out: IC50, uptake inhibition at NET (hNET); for Hill coefficient nH at NET: uptake inhibition curve
T1 construct: expressed in transfected cells
T1 sequence (P23975 whole entry): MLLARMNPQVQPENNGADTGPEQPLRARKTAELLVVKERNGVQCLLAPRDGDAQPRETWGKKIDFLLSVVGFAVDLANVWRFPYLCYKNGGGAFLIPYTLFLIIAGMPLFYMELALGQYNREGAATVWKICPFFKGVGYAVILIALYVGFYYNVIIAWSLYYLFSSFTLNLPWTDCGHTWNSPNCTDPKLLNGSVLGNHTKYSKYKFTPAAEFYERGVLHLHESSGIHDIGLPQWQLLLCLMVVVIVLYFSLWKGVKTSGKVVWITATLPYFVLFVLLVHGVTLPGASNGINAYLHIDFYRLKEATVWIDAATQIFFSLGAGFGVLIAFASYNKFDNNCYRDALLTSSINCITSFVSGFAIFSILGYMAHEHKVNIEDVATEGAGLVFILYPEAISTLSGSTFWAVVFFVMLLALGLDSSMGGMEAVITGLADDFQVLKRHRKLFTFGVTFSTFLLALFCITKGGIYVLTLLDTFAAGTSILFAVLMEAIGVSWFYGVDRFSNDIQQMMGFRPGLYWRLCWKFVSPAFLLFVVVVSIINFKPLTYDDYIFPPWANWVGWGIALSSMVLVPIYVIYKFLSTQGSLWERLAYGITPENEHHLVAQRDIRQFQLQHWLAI
Method: (§1) 1. Biological characterization
(§2) 1.1. Experimental methods
(§3) Buffer and solution compositions (in mM) are as follows:
(§4) Krebs-HEPES buffer (KHB): 120 NaCl, 3 KCl, 2 CaCl2, 2 MgCl2, 20 glucose, 10 HEPES NaOH, pH = 7.3 – 7.4. […]
(§5) 10 mM glucose, 1.25 mM NaH2PO4, pH = 7.4 (oxygenated with 95% O2, 5% CO2).
(§6) Human embryonic kidney 293 cells (HEK293) stably expressing the mCherry-tagged, YFP-tagged, and GFP-tagged human isoforms of SERT (mCherry-SERT, YhSERT, GhSERT), DAT (YhDAT), NET (hNET), and OCT3 (YhOCT3) were cultured in Dulbecco's modified Eagle's medium (DMEM) with high glucose (4.5 g/L) and l-glutamine (584 mg/L), supplemented with 10% fetal calf serum (FCS), 100 units/mL penicillin and 100 µg/mL streptomycin. The cells were cultured in a humidified atmosphere (37 °C, 5% CO2). Geneticin (50 µg/mL), Blasticidin (6 µg/mL), and Zeocin® (150 µg/mL) were added to maintain the selection pressure for the stable cell lines. Cells were typically seeded 24 hours prior to the experiments.
(§7) For uptake inhibition experiments, cells were seeded at 3.6 x 10^4 cells/0.2 mL into 96-well plates coated […]
(§8) with poly-d-lysine (PDL). […]
(§9) For uptake inhibition experiments, the cell medium was aspirated and the cells were washed once with 0.2 mL/well KHB at room temperature. The cells were pre-incubated with increasing concentrations of the substance of interest, diluted in KHB (0.05 mL/well). The pre-incubation solution was replaced with 0.05 mL/well KHB solution still containing the substance of interest and additionally the tritiated substrate (100 nM [3H]DA for YhDAT; 100 nM [3H]5HT for YhSERT; 20 nM and 50 nM [3H]MPP+ for hNET and YhOCT3), after 6 minutes (YhSERT), 5 minutes (YhDAT, hNET), or 10 minutes (YhOCT3). Substrate uptake was stopped after one minute (for [3H]DA and [3H]5HT), three minutes, or […]
ten minutes (for [3H]MPP+), by exchange of the substrate-containing buffer with 0.2 mL ice-cold KHB.
The KHB was aspirated immediately. Cells were lysed and prepared for [3H] content analysis by adding 0.2 mL Ultima Gold™ XR liquid scintillation cocktail. Measurements were performed in a 1450 MicroBeta microplate liquid scintillation counter. Non-specific uptake was determined in the presence of 30 µM paroxetine (for YhSERT), 50 µM GBR12909 (for YhDAT and hNET), or 100 µM decynium-22 (for YhOCT3). […]

YhOCT3 = molecular target: T2, YhOCT3 (Homo sapiens, UniProt O75751); experiment: radioligand uptake inhibition assay ([3H]MPP+); type: cell-based; conditions: for IC50: HEK293 stably expressing YhOCT3, 50 nM [3H]MPP+, mean and SD, N = 3-6, read-out: IC50, uptake inhibition at OCT3 (YhOCT3); for Hill coefficient nH at OCT3: uptake inhibition curve
T2 construct: expressed in transfected cells
T2 sequence (O75751 1-556): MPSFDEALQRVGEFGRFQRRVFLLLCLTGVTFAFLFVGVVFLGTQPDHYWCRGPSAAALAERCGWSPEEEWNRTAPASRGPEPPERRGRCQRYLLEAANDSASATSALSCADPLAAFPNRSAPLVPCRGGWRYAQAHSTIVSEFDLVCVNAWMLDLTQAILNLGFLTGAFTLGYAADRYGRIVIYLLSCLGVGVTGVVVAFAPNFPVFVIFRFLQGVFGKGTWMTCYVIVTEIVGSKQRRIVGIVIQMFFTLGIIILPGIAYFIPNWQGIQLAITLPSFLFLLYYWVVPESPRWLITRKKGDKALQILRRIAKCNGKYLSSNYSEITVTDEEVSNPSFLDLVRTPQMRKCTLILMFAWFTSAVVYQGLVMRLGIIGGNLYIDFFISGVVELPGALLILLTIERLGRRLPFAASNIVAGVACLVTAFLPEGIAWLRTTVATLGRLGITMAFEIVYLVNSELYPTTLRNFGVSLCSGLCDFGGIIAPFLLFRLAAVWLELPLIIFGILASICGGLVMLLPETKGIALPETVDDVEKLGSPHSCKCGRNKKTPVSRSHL
Method: as §1, §2, §3, §4, §5, §6, §7, §8, §9
(§10) The KHB was aspirated immediately. […] Non-specific uptake was determined in the presence of 30 µM paroxetine (for YhSERT), 50 µM GBR12909 (for YhDAT and hNET), or 100 µM decynium-22 (for YhOCT3). […]
(§11) [3H]-imipramine, and increasing concentrations of test compound, for 60 min at 20 – 22 °C. […] The amount of radioactivity in the filters was measured using a Tri-Carb 2800TR liquid scintillation analyzer (PerkinElmer). The Ki was calculated from the measured IC50 using the Cheng-Prusoff equation.
(§12) Prior to imaging, cell culture medium was replaced with pre-warmed KHB. […] PyrAtes were excited using a 405 nm laser, and its fluorescent signals collected using 525/50 nm emission filters; mCherry was excited using a 561 nm laser, and fluorescence was collected using 595/50 nm emission filters. […]
(§13) 5HT-mediated currents were measured at room temperature (20-25°C) using whole-cell patch clamp in HEK293 cells stably expressing SERT. […]

YhDAT = molecular target: T3, YhDAT (Homo sapiens, UniProt Q01959); experiment: radioligand uptake inhibition assay ([3H]DA); type: cell-based; conditions: for IC50: HEK293 stably expressing YhDAT, 100 nM [3H]DA, mean and SD, N = 3-6, read-out: IC50, uptake inhibition at DAT (YhDAT); for Hill coefficient nH at DAT: uptake inhibition curve
T3 construct: expressed in transfected cells
T3 sequence (Q01959 whole entry): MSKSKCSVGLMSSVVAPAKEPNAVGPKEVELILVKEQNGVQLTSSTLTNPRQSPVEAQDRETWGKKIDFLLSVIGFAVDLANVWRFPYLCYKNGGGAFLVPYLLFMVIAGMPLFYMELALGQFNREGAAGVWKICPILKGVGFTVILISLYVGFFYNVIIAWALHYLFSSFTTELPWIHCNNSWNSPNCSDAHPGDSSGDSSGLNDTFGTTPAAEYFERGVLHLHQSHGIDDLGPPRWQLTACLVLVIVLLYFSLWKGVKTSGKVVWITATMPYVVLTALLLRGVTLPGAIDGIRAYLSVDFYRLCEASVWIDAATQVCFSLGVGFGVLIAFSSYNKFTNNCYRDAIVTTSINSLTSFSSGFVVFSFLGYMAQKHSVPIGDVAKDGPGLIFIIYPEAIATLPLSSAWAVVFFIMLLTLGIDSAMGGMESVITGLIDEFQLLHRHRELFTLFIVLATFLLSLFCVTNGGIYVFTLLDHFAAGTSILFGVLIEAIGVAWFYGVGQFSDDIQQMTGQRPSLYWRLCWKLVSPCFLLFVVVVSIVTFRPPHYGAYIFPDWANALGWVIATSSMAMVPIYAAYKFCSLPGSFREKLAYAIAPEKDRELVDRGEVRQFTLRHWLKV
Method: as §1, §2, §3, §4, §5, §6, §7, §8, §9, §10, §11, §12, §13

[1] = photophysical properties in aqueous media; type: physicochemical; conditions: PBS:DMSO 99:1 v/v; for Quantum yield: C153 as internal standard
From the text: Table S5. Photophysical properties of PyrAte-(S)-citalopram conjugates in aqueous media (PBS:DMSO
99:1 v/v). C153 (coumarin 153) was used as internal standard for the measurement of quantum yield.
Compound λmax (nm) λEm (nm) Stokes shift ε at λmax Quantum Brightness (at λmax,
(nm) (M-1 cm-1) yield 103 M-1 cm-1)

CCN(CC)c1ccc(-c2cc[n+]3c(-c4ccccc4)c(N4CCCC4)n(CCCC(=O)NCc4ccc5c(c4)CO[C@@]5(CCCN(C)C)c4ccc(F)cc4)c3c2)cc1 [PYR-C3-CIT, PyrAte-C3-(S)-citalopram]
IC50 (hNET): 10.9 µM
Hill coefficient nH at NET (hNET): −1.0
IC50 (YhOCT3): 3.32 µM
Hill coefficient nH at OCT3 (YhOCT3): −2.1
IC50 (YhDAT): 3.57 µM
Hill coefficient nH at DAT (YhDAT): −1.3
Brightness (at λmax) [1]: 24.0 103 M-1 cm-1
Stokes shift [1]: 88 nm
ε at λmax [1]: 30000 M⁻¹ cm⁻¹
λEm [1]: 493 nm
λmax [1]: 405 nm
Quantum yield [1]: 0.82

CCN(CC)c1ccc(-c2cc[n+]3c(-c4ccccc4)c(N4CCCC4)n(CCCCCCC(=O)NCc4ccc5c(c4)CO[C@@]5(CCCN(C)C)c4ccc(F)cc4)c3c2)cc1 [PYR-C6-CIT, PyrAte-C6-(S)-citalopram]
IC50 (hNET): 12.6 µM
Hill coefficient nH at NET (hNET): −1.3
IC50 (YhOCT3): 2.1 µM
Hill coefficient nH at OCT3 (YhOCT3): −2.3
IC50 (YhDAT): 2.05 µM
Hill coefficient nH at DAT (YhDAT): −1.5
Brightness (at λmax) [1]: 27.0 103 M-1 cm-1
Stokes shift [1]: 87 nm
ε at λmax [1]: 39600 M⁻¹ cm⁻¹
λEm [1]: 493 nm
λmax [1]: 406 nm
Quantum yield [1]: 0.69
